Measurements as given in patent publication US8802597B2, “Herbicidal pyrimidines” (E I du Pont de Nemours and Company, priority 2003, dated 2014).
Read-outs that look alike come from different tables or passages of the source.

Columns and labels:
Type in all cases: in vivo
[1] = test system: barnyardgrass (Echinochloa crus-galli); assay: Test A pre/postemergence; settings: Echinochloa crus-galli, 240 h, read-out: Plant response rating, Barnyardgrass; for pest or weed control at 125 g/ha: 125 g ai/ha; for pest or weed control at 500 g/ha: 500 g ai/ha
Outline: (§1)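 Seeds in loam–sand blend received preemergence directed soil spray and, concurrently, postemergence application (plants 2–10 cm, 1–2-leaf stage) of compound in non-phytotoxic solvent with surfactant. After about ten days in greenhouse, injury rated visually versus untreated controls, 0 (no effect) to 100 (complete control).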

[2] = test system: crabgrass (Digitaria sanguinalis); assay: Test A pre/postemergence; settings: Digitaria sanguinalis, 240 h, read-out: Plant response rating, Crabgrass; for pest or weed control at 125 g/ha: 125 g ai/ha; for pest or weed control at 500 g/ha: 500 g ai/ha
Outline: as §1

[3] = test system: giant foxtail (Setaria faberi); assay: Test A pre/postemergence; settings: Setaria faberi, 240 h, read-out: Plant response rating, Foxtail, Giant; for pest or weed control at 125 g/ha: 125 g ai/ha; for pest or weed control at 500 g/ha: 500 g ai/ha
Outline: as §1

[4] = test system: morningglory (Ipomoea spp.); assay: Test A pre/postemergence; settings: Ipomoea, 240 h, read-out: Plant response rating, Morningglory; for pest or weed control at 125 g/ha: 125 g ai/ha; for pest or weed control at 500 g/ha: 500 g ai/ha
Outline: as §1

[5] = test system: redroot pigweed (Amaranthus retroflexus); assay: Test A pre/postemergence; settings: Amaranthus retroflexus, 240 h, read-out: Plant response rating, Pigweed; for pest or weed control at 125 g/ha: 125 g ai/ha; for pest or weed control at 500 g/ha: 500 g ai/ha
Outline: as §1

[6] = test system: velvetleaf (Abutilon theophrasti); assay: Test A pre/postemergence; settings: Abutilon theophrasti, 240 h, read-out: Plant response rating, Velvetleaf; for pest or weed control at 125 g/ha: 125 g ai/ha; for pest or weed control at 500 g/ha: 500 g ai/ha
Outline: as §1

[7] = test system: bermudagrass (Cynodon dactylon); assay: Test C pre/postemergence; settings: Cynodon dactylon; for pest or weed control at 8 g/ha: 8 g ai/ha; for pest or weed control at 16 g/ha: 16 g ai/ha; for pest or weed control at 31 g/ha: 31 g ai/ha; for pest or weed control at 62 g/ha: 62 g ai/ha
Outline: (§2)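 Injury scored visually 12–14 days after application on 0–100 scale (100 = complete control), relative to controls. Compounds, formulated with surfactant in non-phytotoxic solvent, applied to soil at planting (pre) or to 1- to 4-leaf plants 2–18 cm tall (post) in greenhouse.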

[8] = test system: giant foxtail (Setaria faberii); assay: Test C pre/postemergence; settings: Setaria faberi; for pest or weed control at 8 g/ha: 8 g ai/ha; for pest or weed control at 31 g/ha: 31 g ai/ha; for pest or weed control at 62 g/ha: 62 g ai/ha
Outline: as §2

[9] = test system: johnsongrass (Sorghum halepense); assay: Test C pre/postemergence; settings: Sorghum halepense; for pest or weed control at 8 g/ha: 8 g ai/ha; for pest or weed control at 16 g/ha: 16 g ai/ha; for pest or weed control at 31 g/ha: 31 g ai/ha; for pest or weed control at 62 g/ha: 62 g ai/ha
Outline: as §2

[10] = test system: soybean (Glycine max); assay: Test C pre/postemergence; settings: Glycine max; for plant injury at 8 g/ha: 8 g ai/ha; for plant injury at 16 g/ha: 16 g ai/ha; for plant injury at 31 g/ha: 31 g ai/ha; for plant injury at 62 g/ha: 62 g ai/ha
Outline: as §2

[11] = post-emergence, Postemergence, 0 to 100 scale (0 no effect, 100 complete control)
[12] = pre-emergence, Preemergence, 0 to 100 scale where 0 is no effect and 100 is complete control, approximately ten days
[13] = post-emergence, Postemergence, read-out: Plant response rating (scale of 0 to 100), Bermudagrass
[14] = pre-emergence, Preemergence, scale 0 to 100, 0 no effect, 100 complete control, read-out: Plant response rating, Bermudagrass
[15] = post-emergence, Postemergence, read-out: Plant response rating (scale of 0 to 100), Foxtail, Giant
[16] = pre-emergence, Preemergence, scale 0 to 100, 0 no effect, 100 complete control, read-out: Plant response rating, Foxtail, Giant
[17] = post-emergence, Postemergence, read-out: Plant response rating (scale of 0 to 100), Johnsongrass
[18] = pre-emergence, Preemergence, scale 0 to 100, 0 no effect, 100 complete control, read-out: Plant response rating, Johnsongrass
[19] = post-emergence, Postemergence, read-out: Plant response rating (scale of 0 to 100), Soybean
[20] = pre-emergence, Preemergence, scale 0 to 100, 0 no effect, 100 complete control, read-out: Plant response rating, Soybean

Nc1nc(-c2ccc(Br)cc2)nc(C(=O)O)c1Cl [Compound 95, 6-amino-2-(4-bromophenyl)-5-chloro-4-pyrimidinecarboxylic acid]
90%: pest or weed control at 500 g/ha [1, 11] | pest or weed control at 500 g/ha [3, 12] | pest or weed control at 125 g/ha [6, 11] | pest or weed control at 62 g/ha [9, 17] | plant injury at 8 g/ha ([10]; pre-emergence, Preemergence, scale 0 to 100 (0 no effect, 100 complete control), read-out: Plant response rating, Soybean) | plant injury at 16 g/ha [10, 20]
85%: pest or weed control at 500 g/ha [2, 12] | pest or weed control at 125 g/ha [3, 11] | pest or weed control at 500 g/ha [3, 11] | pest or weed control at 500 g/ha [4, 12] | pest or weed control at 125 g/ha [5, 11] | pest or weed control at 31 g/ha [7, 13] | pest or weed control at 62 g/ha ([7]; post-emergence, Postemergence, scale 0 to 100 (0 no effect, 100 complete control), read-out: Bermudagrass plant response rating)
100%: pest or weed control at 500 g/ha [5, 12] | plant injury at 8 g/ha ([10]; post-emergence, Postemergence, scale 0 to 100, read-out: Plant response rating, Soybean) | plant injury at 16 g/ha [10, 19] | plant injury at 31 g/ha [10, 19] | plant injury at 62 g/ha [10, 19] | plant injury at 31 g/ha [10, 20] | plant injury at 62 g/ha [10, 20]
70%: pest or weed control at 125 g/ha [2, 11] | pest or weed control at 8 g/ha ([7]; post-emergence, Postemergence, scale 0 to 100 (0 no effect, 100 complete control), read-out: Plant response rating, Bermudagrass) | pest or weed control at 16 g/ha [7, 13] | pest or weed control at 8 g/ha ([8]; post-emergence, Postemergence, scale 0 to 100, read-out: Plant response rating, Foxtail, Giant) | pest or weed control at 16 g/ha [9, 17]
30%: pest or weed control at 31 g/ha [8, 16]
35%: pest or weed control at 62 g/ha [8, 16]
75%: pest or weed control at 125 g/ha [1, 11] | pest or weed control at 125 g/ha [4, 11] | pest or weed control at 31 g/ha [8, 15] | pest or weed control at 31 g/ha [9, 17]
20%: pest or weed control at 125 g/ha [1, 12]
55%: pest or weed control at 125 g/ha [6, 12] | pest or weed control at 62 g/ha [7, 14] | pest or weed control at 8 g/ha ([9]; post-emergence, Postemergence, scale 0 to 100, read-out: Plant response rating, Johnsongrass)
0%: pest or weed control at 8 g/ha ([7]; pre-emergence, Preemergence, scale 0 to 100 (0 no effect, 100 complete control), read-out: Plant response rating, Bermudagrass) | pest or weed control at 16 g/ha [7, 14] | pest or weed control at 31 g/ha [7, 14] | pest or weed control at 8 g/ha ([8]; pre-emergence, Preemergence, scale 0 to 100 (0 no effect, 100 complete control), read-out: Plant response rating, Foxtail, Giant) | pest or weed control at 16 g/ha ([8]; pre-emergence, Preemergence, 16 g ai/ha, scale 0 to 100, 0 no effect, 100 complete control, read-out: Plant response rating, Foxtail, Giant) | pest or weed control at 8 g/ha ([9]; pre-emergence, Preemergence, scale 0 to 100 (0 no effect, 100 complete control), read-out: Plant response rating, Johnsongrass)
95%: pest or weed control at 500 g/ha [5, 11] | pest or weed control at 125 g/ha [5, 12] | pest or weed control at 500 g/ha [6, 11] | pest or weed control at 500 g/ha [6, 12]
65%: pest or weed control at 125 g/ha [2, 12] | pest or weed control at 125 g/ha [3, 12]
50%: pest or weed control at 16 g/ha [9, 18]
80%: pest or weed control at 500 g/ha [1, 12] | pest or weed control at 500 g/ha [2, 11] | pest or weed control at 500 g/ha [4, 11] | pest or weed control at 125 g/ha [4, 12] | pest or weed control at 62 g/ha [8, 15] | pest or weed control at 62 g/ha [9, 18]
60%: pest or weed control at 31 g/ha [9, 18]
